Measured values: publication PMC11160895 (Research Square, 2024)

Experiments:
HLA-A3 [1] = molecular target: T1, HLA-A3 (Homo sapiens, UniProt P04439); experiment: Peptide dissociation from HLA-A3 by fluorescence anisotropy; conditions: 100 nM labeled complex + 100 μM unlabeled peptide, pH 7.4
Method: (§1) Anticipating lengthy NMR data collection times, we first verified the stability of the peptide/HLA-A3 complexes.
Fluorescence anisotropy measurements for peptide dissociation were performed as previously described ([15]). […] Changes in anisotropy were recorded as a function of time.

T cells expressing TCR4 = experiment: T cell degranulation CD107a, TCR4-transduced T cells co-cultured with HLA-A3+ antigen presenting cells; conditions: peptide concentrations as high as 10 μM
Method: The peptide specificity of TCR-transduced T cells was assessed by intracellular cytokine staining (ICS) using the BD Cytofix/CytoPerm Plus Kit, following manufacturer’s instructions. Cos-7 cells were electroporated with 100 μg/mL of HLA-A*03:01 mRNA and plated into 96-well round-bottom plates overnight. […] Cells were washed with 1x PBS to remove any unbound peptide. […] Cells were washed with 1×PBS and then fixed and permeabilized for 15 minutes at 4 °C. […] All antibodies were used at a final concentration of 5 μg/mL. Finally, cells were washed with perm-wash buffer, suspended in 2% FBS in PBS and acquired on an X20 LSR Fortessa flow cytometer with the BD FACSDiva software.

TCR4 = experiment: SPR binding of TCR4 to peptide/HLA-A3 complexes, 4 °C; conditions: HBS-EP pH 7.4, gp100 presented by HLA-A2 as irrelevant negative control
Method: To help ensure the stability of the samples, we also performed the experiments at the reduced temperature of 4 °C.
Affinities and binding kinetics were measured via surface plasmon resonance using a Biacore T200 instrument. […] The s3–4 scTv was employed as a positive control and the irrelevant Tax11–19/HLA-A*02:01 or gp100/HLA-A*02:01 complexes as a negative control. […] Experiments were performed at either 4 °C or 25 °C as indicated with a blank activated and deactivated flow cell as reference. Binding affinities were determined by fitting the curve of the reference-subtracted steady-state responses against the injected protein concentrations to a 1:1 binding model in OriginPro 2024. For measurements of dissociation rates, experiments were performed at 4 °C. TCRs or the s3–4 scTV were immobilized to approximately 300 RU on a CM5 Series S sensor chip with peptide/MHC complexes injected at a flow rate of 100 μL/min. The dissociation rate (koff) of a TCR-pMHC binding was determined by fitting the dissociation phase of the sensorgram to a single exponential decay function in OriginPro 2024. The association rate (kon) was calculated from the ratio of measured koff and the separately measured KD at 4 °C using kon=koff/KD.

neoantigen-specific TCRs = conditions: cited from earlier work
From the text: The slight change in the position of the side chain in the complex with TCR3 distorts the geometry of this interaction, although the side chain is still embedded in a complex electrostatic environment with structur ...

HLA-A3 [2] = molecular target: T1, HLA-A3; experiment: 19F NMR of 5F-Trp6 peptides bound to HLA-A3; set-up: the extracellular domain of the MHC heavy chain, β2-microglobulin, TCR α and β chains, and the s3–4 scTv were overexpressed in E coli; made in house
Method: ^19F NMR spectra were recorded using Bruker 600 MHz NMR instrument with a QCI cryogenic probe at NMRFAM, University of Wisconsin-Madison. […] To obtain similar sensitivities on the two samples at different concentrations, the total acquisition times of the 1D experiments in Figs. 7A–F in were set to approximately 12 hours and 33 hours, accordingly. The spectra were acquired in 4-hour blocks interleaved with proton 1D recordings to verify sample stability. For the data in Extended Data Figs. 6D,E total acquisition times were 20 minutes for both complexes. Probe temperature was maintained at a calibrated value of 5.2 °C. Once all blocks were recorded, they were checked individually for frequency drift, which was not detected, and combined to obtain combined datasets with improved signal/noise ratio. The reference frequency of the ^19F channel was set through internal routines of the Topspin acquisition software after the NMR spectrometer was locked on D2O. […] To improve the signal/noise ratio, we compared recording of ^19F 1D spectra with and without proton decoupling. […] We also optimized a recycle delay for the fluorine 1D experiment and determined that 1 s was the optimal time. Therefore, D1 of 0.4 s was used with AQ of 0.59 s. Line shape deconvolution was performed using Mestrelab MNova NMR. Free induction decays were processed with an exponential window function, Fourier- transformed, and baseline corrected prior to fitting with Lorentzian line shapes. CEST experiments were performed by applying 10–40 μW irradiation on a proton channel at a desired ppm position for 0.4 s. The total acquisition time for each CEST dataset was 2 hours. The bandwidth of the saturation pulse was directly measured on a free peptide sample by varying the saturation ppm position around the sharp peptide peak. The direct effect of the pre-saturation pulse was found detectable within +/− 0.5 ppm from the irradiation position. Exchange Spectroscopy (EXSY) experiments were performed with 50 ms mixing time. […] Data were collected in four six-hour blocks that were combined for processing.

HLA-A3 [3] = molecular target: T1, HLA-A3; conditions: fluorescence anisotropy, position 5 5-carboxyfluorescein-lysine peptide, 100 nM complex + 100 μM unlabeled peptide, 20 mM NaH2PO4, 75 mM NaCl, pH 7.4; cited from earlier work
From the text: as §1

stability of peptide/HLA-A3 complex at 25 °C (HLA-A3 [1]): markedly less stable
binding to TCR4 (detection) (TCR4): No binding was detectable
number of 19F peaks of the complex by line shape fitting (HLA-A3 [2]; 5F-Trp6 peptide/HLA-A3 complex, 5 °C): at least eight
Sequence: AHHGGWTTK [WT peptide]
T cell stimulation (CD107a) (T cells expressing TCR4): no stimulation was evident
recognition by multiple neoantigen-specific TCRs (neoantigen-specific TCRs): unable to recognize the WT peptide/HLA-A3 complex
conformational exchange (CEST) (HLA-A3 [2]; 5F-Trp6 peptide/HLA-A3 complex, 5 °C, EXSY consistent): all the peaks were in exchange except for the peak at −125.12 ppm
stability of complex on storage (19F NMR) (HLA-A3 [2]; approximately 11 months at 4 °C, 5F-Trp6 peptide/HLA-A3): significant increase in the resonance at −125.12 ppm
stability of peptide/HLA-A3 complex at 37 °C (HLA-A3 [3]): markedly less stable
